Measured values: patent US20070298026A1, “Methods for Identifying Treatment and Inducing Infertility Using Smc1-Beta” (MOUNT SINAI SCHOOL OF MEDICINE Office of Industrial Liaison, priority 2003, published 2007)
Entries after “also recorded” stand apart in the source; their conditions may differ.

Assays:
[1] = test system: type A spermatogonial cells; settings: cited from earlier work
SMC1β = SMC1β proteolysis/degradation assay in testis nuclear extracts (immunoblot); assay type: biochemical, mouse; settings: for effect of added SMC1β protein fragment on degradation of SMC1β: increasing amounts of fragment added to testis nuclear extract, anti-SMC1β immunoblot
From the text: It is very likely, that phosphorylation and/or protein degradation play an important role in regulating the removal of SMC1β and its complex from meiotic chromosomes. Understanding this mechanism would fill a significant gap in our knowledge of the meiotic process and of regulation of SMC1β function. It is unlikely that association and dissociation of cohesins are regulated exclusively through Rec8, because Rec8 behaves differently from SMC1β and SMC3 (Eijpe et al., J. Cell Biol. 160:657-670,2003; and see below). As a first approach to address this question, a series of proteolysis assays were undertaken. In these assays, nuclear extracts from mouse testis were incubated under various conditions and investigated the intactness of SMC1β by immunoblotting.
To begin testing the effect of phosphorylation, nuclear extracts were prepared in the presence or absence of general phosphatase inhibitors (1 mM o-vanadate, 10 mM β-glycerophosphate). If a phosphorylated SMC1β is more prone to degradation, inhibited dephosphorylation should stimulate degradation. […] The effect of phosphatase inhibition can either be direct—on SMC1β phosphorylation—or indirect, i.e. on maintaining an activated state of the protease or of a regulator of the protease. The mechanism of phosphatase inhibition and the identification of enzymes that are involved are currently being examined.
Speculating that the 120-kDa product seen in degradation assays is a true intermediate of SMC1β degradation, two fragments of SMC1β that span either one of the two putative regions of cleavage, positioned at about 30 kDa distance from each of the termini, were subcloned and expressed in E. coli. Thus, an N-terminal or a C-terminal polypeptide of 33 or 35 kDa, respectively, was expressed and purified. While the N-terminal fragment was purified to near homogeneity (100 mM imidazole fraction), there were one major and a few minor contaminants in the C-terminal fragment preparation. The putative region of cleavage was identified at the center of these polypeptides (N-terminal fragment: amino acids 174 to 420; C-terminal fragment: amino acids 820 to 1073). These proteins were used in cleavage inhibition assays. […] Thus, there is early evidence for a cleavage site within the N-terminal region between amino acids 174 and 420, and the precise cleavage site is being determined.
In attempts to identify the protease cleavage site within SMC1β, N-terminal and C-terminal protein fragments of SMC1β were purified in increasing concentrations of imidazole in elution buffer and run on silver-stained SDS polyacrylamide gels. To assay degradation, increasing amounts of N- or C-terminal protein fragments were then added to a reaction containing extract incubated with and without competitor. Reactions were then separated eletrophoretically on SDS polyacrylamide gels, immunoblotted, and probed with anti-SMC1β antibody. […] Cleavage of the N-terminal fragment itself is currently being investigated.

Rec8 or STAG3 = experiment: Degradation of other cohesin subunits in testis nuclear extracts; assay type: biochemical, mouse; settings: ATP added to testis nuclear extract
spermatocytes = experiment: Okadaic acid-induced premature transition of cultured spermatocytes into metaphase I; assay type: cell-based; settings: wildtype mouse spermatocytes; 5 μM okadaic acid for 5 h
From the text: As a result, 20 bivalents, each with two pairs of unseparated, closely apposed sister kinetochores and at least one chiasma became visible. […] Co-staining for γ-H2AX, which decreases from zygotene to pachytene, allowed for determination of the stage at which the cells were exposed to OA. Cells with 80 centromere signals were of pachytene origin (no γ-H2AX), and cells with 40 centromere signals were of zygotene origin (patchy γ-H2AX).
Most antibodies used have been described (Eijpe et al., supra, 2000; Revenkova et al., supra, 2001; and 14. Eijpe et al., J. Cell Biol. 3,.657-670, 2003). Mouse anti-MLH1 was from BDPharMingen, rabbit-antiMLH1 from Calbiochem, and rabbit anti-SMC1α from Bethyl Labs Inc. Mouse anti-γH2AX was donated by A. Pastink, rabbit anti-SMC3 by J. -M. Peters, rabbit anti-RAP1 by T. de Lange, mouse anti-ATR by P. de Boer, mouse anti-MLH3 by P. Cohen, and goat anti-rat SCP3 by T. Ashley. Paraffin and frozen sections of mouse testis, and dry-down preparations of testis cell suspensions were prepared, incubated for immunocytochemistry and analyzed as described (Eijpe et al., supra, 2000;, Revenkova et al., supra, 2001; Eijpe et al., J. Cell Biol. 3, 657-670, 2003; Peters et al., Chromosome Res. 5:66-68, 1997). Mice were labeled in vivo with BrdU, and detected -the incorporated BrdU in sections and dry-down preparations as described before (Eijpe et al, supra, 2003). […]

human PEP = target: T1, human PEP (Homo sapiens, UniProt P48147); settings: inhibitor from Calbiochem Inc.; cited from earlier work
T1 sequence (P48147 1-710): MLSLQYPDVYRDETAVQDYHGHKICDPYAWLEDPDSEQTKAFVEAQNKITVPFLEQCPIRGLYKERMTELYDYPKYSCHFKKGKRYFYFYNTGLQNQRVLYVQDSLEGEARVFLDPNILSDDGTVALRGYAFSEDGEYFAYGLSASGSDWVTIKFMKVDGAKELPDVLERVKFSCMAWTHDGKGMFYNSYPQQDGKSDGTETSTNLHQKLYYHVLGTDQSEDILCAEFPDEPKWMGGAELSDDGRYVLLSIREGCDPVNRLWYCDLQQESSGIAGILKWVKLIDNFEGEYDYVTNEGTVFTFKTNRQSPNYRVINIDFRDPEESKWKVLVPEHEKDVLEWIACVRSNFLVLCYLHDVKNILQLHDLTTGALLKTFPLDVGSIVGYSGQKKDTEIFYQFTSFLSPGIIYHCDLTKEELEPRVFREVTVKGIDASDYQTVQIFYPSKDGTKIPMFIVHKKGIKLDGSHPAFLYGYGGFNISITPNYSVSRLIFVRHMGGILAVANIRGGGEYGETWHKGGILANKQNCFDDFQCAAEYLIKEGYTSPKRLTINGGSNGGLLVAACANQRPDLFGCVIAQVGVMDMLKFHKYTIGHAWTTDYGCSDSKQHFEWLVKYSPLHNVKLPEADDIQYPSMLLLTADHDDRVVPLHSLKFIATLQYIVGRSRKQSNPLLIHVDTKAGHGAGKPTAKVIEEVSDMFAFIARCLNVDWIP

stem cell factor: stem cell factor (SCF; kit ligand) added to induce meiosis in spermatogonial cultures
cells that are 4N ([1]; after 1 week of induction): 40%
total cell population that is haploid ([1]; after 3 weeks of induction): 58%

Nc1ncnc2c1ncn2[C@@H]1O[C@H](COP(=O)(O)OP(=O)(O)OP(=O)(O)O)[C@@H](O)[C@H]1O [ATP]
effect of ATP on SMC1β degradation (SMC1β; ATP added to testis nuclear extract): increased the efficiency of the reaction; also recorded: stimulates SMC1β degradation
effect of ATP on degradation of Rec8 or STAG3 (Rec8 or STAG3): not enhanced by addition of ATP, but rather inhibited

C=C1[C@@H](O)[C@@H]2O[C@]3(CC[C@H](/C=C/[C@@H](C)[C@@H]4CC(C)=C[C@@]5(O[C@H](C[C@@](C)(O)C(=O)O)CC[C@H]5O)O4)O3)CC[C@H]2O[C@@H]1[C@@H](O)C[C@H](C)[C@H]1O[C@@]2(CCCCO2)CC[C@H]1C [OA, okadaic acid]
effect on chromosome condensation and cohesion (spermatocytes): caused premature chromosome condensation from mid-pachytene on, without affecting sister chromatid arm and centromere cohesion

CC(C)(C)OC(=O)NC(CCC(=O)NOC(=O)c1ccccc1)C(=O)N1CCCC1 (stereo not shown) [Boc-Glu(NHO-Bz)-Pyr]
Ki (human PEP): 30 nM

B1: N-terminal protein: SMC1β N-terminal fragment, amino acids 174 to 420, 33 kDa polypeptide expressed in E. coli (protein, UniProt Q8NDV3 174-420, looked up, fragment)
chain: KLQKAEEDAQFNFNKKKNIAAERRQAKLEKEEAERYQSLLEELKMNKIQLQLFQLYHNEKKIHLLNTKLEHVNRDLSVKRESLSHHENIVKARKKEHGMLTRQLQQTEKELKSVETLLNQKRPQYIKAKENTSHHLKKLDVAKKSIKDSEKQCSKQEDDIKALETELADLDAAWRSFEKQIEEEILHKKRDIELEASQLDRYKELKEQVRKKVATMTQQLEKLQWEQKTDEERLAFEKRRHGEVQGN
effect of added SMC1β protein fragment on degradation of SMC1β (SMC1β): inhibited the degradation of SMC1β
effect of added SMC1β protein fragment on degradation of SMC1β (SMC1β; listed as N-terminal 33-kDa fragment): identified as an inhibitor to protease cleavage
effect of added SMC1β protein fragment on degradation of SMC1β (SMC1β; listed as N-terminal peptide of SMC1β): inhibited specifically

B2: C-terminal protein: SMC1β C-terminal fragment, amino acids 820 to 1073, 35 kDa polypeptide expressed in E. coli (protein, UniProt Q8NDV3 820-1073, looked up, fragment)
chain: QLEYSRSHLKKKLNKINTLKETIQKGSEDIDHLKKAEENCLQTVNELMAKQQQLKDIRVTQNSSAEKVQTQIEEERKKFLAVDREVGKLQKEVVSIQTSLEQKRLEKHNLLLDCKVQDIEIILLSGSLDDIIEVEMGTEAESTQATIDIYEKEEAFEIDYSSLKEDLKALQSDQEIEAHLRLLLQQVASQEDILLKTAAPNLRALENLKTVRDKFQESTDAFEASRKEARLCRQEFEQVKKRRYDLFTQCFEHV
effect of added SMC1β protein fragment on degradation of SMC1β (SMC1β): degradation was not affected
